Measured values from publication PMC2922960 (Bioorganic & medicinal chemistry letters, 2009).

What was measured:
FTase [1] = details: cited from earlier work
[2] = molecular target: T1, recombinant mammalian FTase (Homo sapiens, UniProt P49354+P49356); experiment: HPLC analysis of farnesylated peptide product formation; type: biochemical; details: 3 μM peptide, 9 μM FPP, 0.05 μM FTase; for HPLC: formation of farnesylated peptide product: after 60 min incubation with FTase
FTase [3] = molecular target: FTase (Homo sapiens, UniProt P49354+P49356); experiment: steady-state kinetic assay; type: biochemical, mammalian; details: saturating FPP (10 μM), 0.2-10 μM dansylated peptide, 20-100 nM FTase, 50 mM HEPPSO pH 7.8, 5 mM TCEP, 5 mM MgCl2, 25 °C; fluorescence λex 340 nm, λem 520 nm
[4] = molecular target: T1, recombinant mammalian FTase; experiment: continuous spectrofluorimetric assay of FTase substrate activity; type: biochemical; details: from fluorescence screen and HPLC confirmation

Substance | HPLC: formation of farnesylated peptide product [2] | also measured
DnTKCVIL |  | FTase substrate activity under single turnover conditions (FTase [1]; single turnover conditions): FTase substrate; FTase turnover under steady-state conditions (FTase [1]; steady-state conditions): did not exhibit efficient turnover
CSIL | +++ | kcat/KM (FTase [3]): 5000 ± 1000 M⁻¹ s⁻¹
CIIL | +++ | kcat/KM (FTase [3]): 43000 ± 8000 M⁻¹ s⁻¹
CAIL | +++ | kcat/KM (FTase [3]): 27000 ± 2000 M⁻¹ s⁻¹
CQNL | − − | 
DnGCVIL | +++ | kcat/KM (FTase [3]): 47000 ± 8000 M⁻¹ s⁻¹
CVLL | + (25% to 50% conversion to product) | FTase substrate ability (category in words) [4]: relatively modest FTase substrates
CALL | + (25% to 50% conversion to product) | 
DnGCLML | ++ | kcat/KM (FTase [3]): 8100 ± 500 M⁻¹ s⁻¹; FTase substrate ability (category in words) [4]: good FTase substrate
CILL | ++ | kcat/KM (FTase [3]): 8000 ± 2000 M⁻¹ s⁻¹
CLVL | + (25% to 50% conversion to product) | 
CGQL | − − | 
CLLL | + (25% to 50% conversion to product) | FTase substrate ability (category in words) [4]: poor FTase substrate
CNPL | − − | 
CPIL | + (25% to 50% conversion to product) | FTase substrate ability (category in words) [4]: confirmed substrates
CGGL | − − | 
CKVL | + (25% to 50% conversion to product) | FTase substrate ability (category in words) [4]: relatively modest FTase substrates
CMEL | − − | 
CTLL | + (25% to 50% conversion to product) | 
CCLL | + (25% to 50% conversion to product) | 
CCVL | +++ | kcat/KM (FTase [3]): 7000 ± 1000 M⁻¹ s⁻¹
CLGL | − − | 

Substance | HPLC: formation of farnesylated peptide product [2] | also measured
CEKL | − − | 
CQLL | − (less than 25% conversion) | 
CSVL | + (25% to 50% conversion to product) | 
CTIL | ++ | kcat/KM (FTase [3]): 33000 ± 7000 M⁻¹ s⁻¹
CCSL | − − | 
CVGL | − − | 
CRLL | + (25% to 50% conversion to product) | 
CHAL | − − | 
CSTL | − − | 
CAYL | − − | 
CSQL | − − | 
CSFL | − − | 
CTAL | − − | 
DnGCVLS [reference compound] |  | turnover to farnesylated product ([2]; after 15 minutes): complete turnover
CHPL | − − | 
CGCL | − − | 
CLIL | ++ | FTase substrate ability (category in words) [4]: confirmed substrates
CLQL | − (less than 25% conversion) | 
CSLL | − (less than 25% conversion) | 
DnGCCIL | +++ | kcat/KM (FTase [3]): 23000 ± 3000 M⁻¹ s⁻¹; FTase substrate ability (category in words) [4]: efficient FTase substrate
CNIL | ++ | kcat/KM (FTase [3]): 12000 ± 900 M⁻¹ s⁻¹
